According to US8785598B2, “Coenzyme Q10 nanoparticles, preparation method thereof and composition containing said nanoparticles” (Korea Research Institute of Bioscience and Biotechnology, priority 2009, dated 2014):

Assay: Confirmation of solubilization of coenzyme Q10 nanoparticle (visual, FIG. 9)
Type: physicochemical
Details: dispersed in water
Source text: FIG. 9 illustrates images of (1) coenzyme Q10 powder, (2) an aqueous solution separated into a supernatant layer when coenzyme Q10 is dispersed in water and (3) an aqueous solution of a coenzyme Q10 nanoparticle of Example 7 of the present invention.
As a result, a semi-transparent yellow aqueous solution was formed.

solubility in water / appearance of aqueous solution: not soluble in water
Structure (SMILES): COC1=C(OC)C(=O)C(C/C=C(\C)CC/C=C(\C)CC/C=C(\C)CC/C=C(\C)CC/C=C(\C)CC/C=C(\C)CC/C=C(\C)CC/C=C(\C)CC/C=C(\C)CCC=C(C)C)=C(C)C1=O [coenzyme Q10]
